Data taken from patent US10336697B2, “Spiro[cyclobutane-1,3′-indolin]-2′-one derivatives as bromodomain inhibitors” (Orion Corporation, priority 2015, dated 2019).
Counter-ions that a name gives are not always drawn.

Target: Bet BRD4 full length bromo-domain protein (Homo sapiens, UniProt O60885)
Test: Bet bromodomain TR-FRET assay (displacement of acetyl histone peptide)
Type: binding
Details: Bet BRD4 full length bromodomain protein, 300 nM acetyl histone peptide substrate, read-out: IC50

IC50 [nM]	SMILES
> 1000	CN1CCN(C(=O)c2cc(NS(=O)(=O)c3ccc(F)cc3F)cc3c2NC(=O)C32CCC2)CC1 [Compound 47, 2,4-Difluoro-N-(7′-(4-methylpiperazine-1-carbonyl)-2′-oxospiro[cyclobutane-1,3′-indolin]-5′-yl)benzenesulfonamide]
> 1000	O=C(c1cc(NS(=O)(=O)c2ccc(F)cc2F)cc2c1NC(=O)C21CCC1)N1CCOCC1 [Compound 48, 2,4-Difluoro-N-(7′-(morpholine-4-carbonyl)-2′-oxospiro [cyclobutane-1,3′-indolin]-5′-yl)benzenesulfonamide]
600 to 1000	O=C(Nc1ccccn1)c1cc(NS(=O)(=O)c2ccc(F)cc2F)cc2c1NC(=O)C21CCC1 [Compound 49, 5′-(2,4-Difluorophenylsulfonamido)-2′-oxo-N-(pyridin-2-yl)spiro[cyclobutane-1,3′-indoline]-7′-carboxamide]
< 600	O=C(NC1CCOCC1)c1cc(NS(=O)(=O)c2ccc(F)cc2F)cc2c1NC(=O)C21CCC1 [Compound 50, 5′-(2,4-Difluorophenylsulfonamido)-2′-oxo-N-(tetrahydro-2H-pyran-4-yl)spiro[cyclobutane-1,3′-indoline]-7′-carboxamide]
600 to 1000	O=C(Nc1cccnc1)c1cc(NS(=O)(=O)c2ccc(F)cc2F)cc2c1NC(=O)C21CCC1 [Compound 51, 5′-(2,4-Difluorophenylsulfonamido)-2′-oxo-N-(pyridin-3-yl)spiro[cyclobutane-1,3′-indoline]-7′-carboxamide]
< 600	CN1CCC(NC(=O)c2cc(NS(=O)(=O)c3ccc(F)cc3F)cc3c2NC(=O)C32CCC2)C1 (stereo not drawn) [Compound 52, 5′-(2,4-Difluorophenylsulfonamido)-N-(1-methylpyrrolidin-3-yl)-2′-oxospiro[cyclobutane-1,3′-indoline]-7′-carboxamide]
> 1000	CN1CCC(N(C)C(=O)c2cc(NS(=O)(=O)c3ccc(F)cc3F)cc3c2NC(=O)C32CCC2)CC1 [Compound 53, 5′-(2,4-Difluorophenylsulfonamido)-N-methyl-N-(1-methylpiperidin-4-yl)-2′-oxospiro[cyclobutane-1,3′-indoline]-7′-carboxamide]
< 600	CCN1CCC(NC(=O)c2cc(NS(=O)(=O)c3ccc(F)cc3F)cc3c2NC(=O)C32CCC2)CC1 [Compound 54, 5′-(2,4-Difluorophenylsulfonamido)-N-(1-ethylpiperidin-4-yl)-2′-oxospiro[cyclobutane-1,3′-indoline]-7′-carboxamide]
600 to 1000	O=C(NC1CCCCC1)c1cc(NS(=O)(=O)c2ccc(F)cc2F)cc2c1NC(=O)C21CCC1 [Compound 55, N-cyclohexyl-5′-(2,4-difluorophenylsulfonamido)-2′-oxospiro[cyclobutane-1,3′-indoline]-7′-carboxamide]
< 600	CN1CCC(NC(=O)c2cc(NS(=O)(=O)c3ccc(F)cc3F)cc3c2NC(=O)C32CCC2)CC1 [Compound 56, 5′-(2,4-Difluorophenylsulfonamido)-N-(1-methylpiperidin-4-yl)-2′-oxospiro[cyclobutane-1,3′-indoline]-7′-carboxamide]
< 600	O=C(Nc1ccncc1)c1cc(NS(=O)(=O)c2ccc(F)cc2F)cc2c1NC(=O)C21CCC1 [Compound 57, 5′-(2,4-Difluorophenylsulfonamido)-2′-oxo-N-(pyridin-4-yl)spiro[cyclobutane-1,3′-indoline]-7′-carboxamide]
< 600	CN1CCCC(NC(=O)c2cc(NS(=O)(=O)c3ccc(F)cc3F)cc3c2NC(=O)C32CCC2)C1 (stereo not drawn) [Compound 58, 5′-(2,4-Difluorophenylsulfonamido)-N-(1-methylpiperidin-3-yl)-2′-oxospiro[cyclobutane-1,3′-indoline]-7′-carboxamide]
> 1000	CC(C)(O)C1CCN(C(=O)c2cc(NS(=O)(=O)c3ccc(F)cc3F)cc3c2NC(=O)C32CCC2)CC1 [Compound 59, 2,4-Difluoro-N-(7′-(4-(2-hydroxypropan-2-yl)piperidine-1-carbonyl)-2′-oxospiro[cyclobutane-1,3′-indolin]-5′-yl)benzenesulfonamide]
< 600	COc1ccccc1S(=O)(=O)Nc1cc(C(=O)NC2CCN(C)CC2)c2c(c1)C1(CCC1)C(=O)N2 [Compound 60, 5′-(2-Methoxyphenylsulfonamido)-N-(1-methylpiperidin-4-yl)-2′-oxospiro[cyclobutane-1,3′-indoline]-7′-carboxamide]
> 1000	O=C(c1cc(NS(=O)(=O)c2ccc(F)cc2N2CCOCC2)cc2c1NC(=O)C21CCC1)N1CCOCC1 [Compound 61, 4-Fluoro-N-(7′-(morpholine-4-carbonyl)-2′-oxospiro[cyclobutane-1,3′-indolin]-5′-yl)-2-morpholinobenzenesulfonamide]
> 1000	O=C1Nc2c(Nc3ccncc3)cc(NS(=O)(=O)c3ccc(F)cc3F)cc2C12CCC2 [Compound 62, 2,4-Difluoro-N-(2′-oxo-7′-(pyridin-4-ylamino)spiro[cyclobutane-1,3′-indolin]-5′-yl)benzenesulfonamide]
600 to 1000	CC(=O)Nc1cc(NS(=O)(=O)c2ccc(F)cc2F)cc2c1NC(=O)C21CCC1 [Compound 63, N-(5′-((2,4-difluorophenyl)sulfonamido)-2′-oxospiro[cyclobutane-1,3′-indolin]-7′-yl)acetamide]
< 600	COc1ccccc1S(=O)(=O)Nc1cc(C(=O)NC2CCNCC2)c2c(c1)C1(CCC1)C(=O)N2 [Compound 64, 5′-((2-methoxyphenyl)sulfonamido)-2′-oxo-N-(piperidin-4-yl)spiro[cyclobutane-1,3′-indoline]-7′-carboxamide]
< 600	O=C(NC1CCCNC1)c1cc(NS(=O)(=O)c2ccc(F)cc2F)cc2c1NC(=O)C21CCC1 (stereo not drawn) [Compound 65, 5′-(2,4-Difluorophenylsulfonamido)-2′-oxo-N-(piperidin-3-yl)spiro[cyclobutane-1,3′-indoline]-7′-carboxamide]
< 600	O=C(NC1CCNCC1)c1cc(NS(=O)(=O)c2ccc(F)cc2F)cc2c1NC(=O)C21CCC1 [Compound 66, 5′-(2,4-Difluorophenylsulfonamido)-2′-oxo-N-(piperidin-4-yl)spiro[cyclobutane-1,3′-indoline]-7′-carboxamide]
< 600	O=C1Nc2c(CO)cc(NS(=O)(=O)c3ccc(F)cc3F)cc2C12CCC2 [Compound 69, 2,4-Difluoro-N-(7′-(hydroxymethyl)-2′-oxospiro[cyclobutane-1,3′-indolin]-5′-yl)benzenesulfonamide]
< 600	CCN1CCCC(Nc2cc(NS(=O)(=O)c3ccc(F)cc3F)cc3c2NC(=O)C32CCC2)C1 (stereo not drawn) [Compound 70, N-(7′-((1-ethylpiperidin-3-yl)amino)-2′-oxospiro[cyclobutane-1,3′-indolin]-5′-yl)-2,4-difluorobenzenesulfonamide]
< 600	O=C1Nc2c(NC3CCCNC3)cc(NS(=O)(=O)c3ccc(F)cc3F)cc2C12CCC2 (stereo not drawn) [Compound 71, 2,4-Difluoro-N-(2′-oxo-7′-(piperidin-3-ylamino)spiro[cyclobutane-1,3′-indolin]-5′-yl)benzenesulfonamide hydrochloride]
> 1000	CN1CCC(NC(=O)c2cc(N(C)S(=O)(=O)c3ccc(F)cc3F)cc3c2NC(=O)C32CCC2)CC1 [Compound 72, 5′-((2,4-Difluoro-N-methylphenyl)sulfonamido)-N-(1-methylpiperidin-4-yl)-2′-oxospiro[cyclobutane-1,3′-indoline]-7′-carboxamide]
